Reference: the METLIN SMRT retention time set (Domingo-Almenara et al. 2019)

Test: gradient 5% acetonitrile 3 min, to 50% in 2 min, to 85% in 15 min, held 3 min, 100 µL/min
Settings: column: Zorbax Extend-C18 2.1 x 50 mm; eluents: water / acetonitrile, 0.1% formic acid
Outline: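 Pure standards were run in mixtures of ~100 molecules by HPLC coupled to a quadrupole time-of-flight mass spectrometer. The column was a Zorbax Extend-C18 (2.1 × 50 mm, 1.8 μm) at 100 μL/min, with water and acetonitrile each containing 0.1% formic acid, in positive and negative ionization mode. Dead and dwell volumes were 40 μL and 900 μL. Retention time was taken from computationally picked adduct peaks, each manually inspected, with data collected over 3 months.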
Compound COc1cccc(-n2c(N3CCCC(C(=O)NC4CCCC4)C3)nc3ccsc3c2=O)c1 (centres undefined) has an RP-LC retention time of 818 s. O=c1[nH]cc(S(=O)(=O)NC2CCCC2)c(=O)[nH]1 gave an RP-LC retention time of 600 s. COc1ccc(C2(c3nc(-c4cccc(-c5ccnn5C)c4)no3)CC2)cc1 gave an RP-LC retention time of 1150 s. CCc1ccc(NC(=O)Cn2c(C(C)C)nc3cc4c(cc32)OCCO4)cc1 gave an RP-LC retention time of 742 s. For CO/N=C(\C(=O)N[C@@H]1C(=O)N2C(C(=O)OCOC(=O)C(C)(C)C)=C(/C=C\c3scnc3C)CS[C@H]12)c1csc(N)n1, the RP-LC retention time was 792 s. Compound CCN1c2ccc(C)cc2C(=O)NC12CCN(C(=O)c1cc(F)cc(F)c1)CC2 has an RP-LC retention time of 858 s. COc1nccnc1NC1CCN(C(=O)c2ccco2)CC1 showed an RP-LC retention time of 690 s. Work on CCOc1ccc2nc(NC3=NCN(Cc4cccnc4)CN3)nc(C)c2c1 yielded an RP-LC retention time of 580 s. CC(C)N1CCN(C(=O)c2csc(C(=O)NC3CCCC3)n2)CC1 gave an RP-LC retention time of 590 s. Cc1ccsc1C(=O)N1CCC2(CC1)CC(N(C(=O)NC(C)C)C1CC1)CCO2 (centres undefined) gave an RP-LC retention time of 798 s. For CN(C)C(=O)c1ccc2c(c1)N(CC(=O)NCCc1c[nH]c3ccccc13)C(=O)C1CCCCN21 (centres undefined), the RP-LC retention time was 781 s. Cc1ccc(OCC(=O)N(Cc2ccc(Br)o2)C2CCS(=O)(=O)C2)cc1C (centres undefined) showed an RP-LC retention time of 996 s. CSc1nc(N2CCCC2)c2cnn(CCNC(=O)c3cc(-c4ccccc4)n[nH]3)c2n1 gave an RP-LC retention time of 761 s. O=C(Cc1nnc2cc(-c3nc(C4CC4)no3)ccn12)NC1CC1 gave an RP-LC retention time of 646 s. In the case of COc1ccc(C2C(C(=O)NCCN3CCOCC3)c3cc(OC)c(OC)cc3C(=O)N2C)cc1 (centres undefined), the RP-LC retention time was 610 s. For O=C(NC1(c2nc(C3CC3)no2)CCCCC1)c1cc(-c2ccc(F)cc2)n[nH]1, the RP-LC retention time was 905 s. With O=C(CCn1c(=O)sc2ccccc21)Nc1ccc(Br)cc1 the RP-LC retention time was 884 s. O=C(C1CCCC1)N1CCCCC1c1nc(C2CC2)n[nH]1 (centres undefined) gave an RP-LC retention time of 676 s. O=C(CN1C(=O)c2ccccc2C1=O)NCc1nnnn1-c1ccc(Cl)cc1 showed an RP-LC retention time of 722 s. In the case of CS(=O)(=O)NCc1ccc2c(c1)CCN2C(=O)c1ccccc1, the RP-LC retention time was 733 s. Work on CCn1cc(-c2nc(C(=O)Nc3ccc(OC)cc3)cs2)c2cccnc21 yielded an RP-LC retention time of 1000 s. With COCCOC(=O)c1cn(-c2cccc(OC)c2)c(=O)c2ccccc12 the RP-LC retention time was 902 s. Compound CCCNC(=O)c1ccc2ncnc(N3CCCC3)c2c1 has an RP-LC retention time of 576 s. Work on O=C(Cn1cccc1-c1nc(-c2ccc(Cl)cc2)cs1)N1CCCC1 yielded an RP-LC retention time of 1130 s. In the case of COC(=O)C1C(=O)C2=C(CC1C)NC(C)=C(C(=O)OCCOC(C)C)C2c1cccc(F)c1 (centres undefined), the RP-LC retention time was 961 s. CCN(C(=O)CN1C(=O)NC2(CCC(C)CC2)C1=O)c1cccc(C)c1 (centres undefined) gave an RP-LC retention time of 666 s. Work on O=C(CSc1cc(-c2ccc(F)cc2)ncn1)NCc1ccc2c(c1)OCO2 yielded an RP-LC retention time of 825 s. For Cc1ccc(CN2CCN(C3CCN(S(=O)(=O)c4ccc(F)c(Cl)c4)CC3)C(=O)C2=O)cc1, the RP-LC retention time was 926 s. In the case of O=C(NC1CC(=O)N(C2CC2)C1)c1cc(-c2ccccc2)n[nH]1 (centres undefined), the RP-LC retention time was 607 s. O=C(Cn1cccn1)NCc1ccc(OCc2ccccc2)cc1 showed an RP-LC retention time of 776 s. Compound COc1ccccc1OCCC1CCN(S(=O)(=O)c2c(C)nn(C)c2C)C1 (centres undefined) has an RP-LC retention time of 861 s. In the case of O=C(Nc1nc(-c2ccccc2)cs1)c1sc2cc([N+](=O)[O-])ccc2c1Cl, the RP-LC retention time was 1260 s. With COCC(=O)N1CCN(C2CCN(CCC(C)C)C2=O)CC1 (centres undefined) the RP-LC retention time was 535 s. Cc1csc(NC(=O)C2CCN(S(=O)(=O)c3cc(-c4noc(C)n4)cs3)CC2)n1 showed an RP-LC retention time of 829 s. Work on COc1ccc2[nH]cc(CCNC(=O)C3CCCCC3)c2c1 yielded an RP-LC retention time of 804 s. Compound O=C(NCc1ccccc1F)c1ccc2c(c1)CNCCO2 has an RP-LC retention time of 605 s. For O=C(NCc1cccs1)c1ccc(-c2nccnc2N2CCCCC2)cc1, the RP-LC retention time was 968 s. Work on CCOc1ccccc1CNC(=O)CN1CCN(Cc2ccccc2F)C1=O yielded an RP-LC retention time of 854 s. In the case of Cc1ccc(Nc2cc(C)nc(N3CCN(C(=O)Nc4cccc(Cl)c4)CC3)n2)cc1, the RP-LC retention time was 800 s. Compound CSc1ccc(CNC(=O)C2CCCN(c3ccc(N4CCOCC4)nn3)C2)cc1 (centres undefined) has an RP-LC retention time of 653 s. Cc1noc(C)c1-c1ccc(S(=O)(=O)Nc2ccc(Br)cc2F)cc1 gave an RP-LC retention time of 1010 s. In the case of Cc1ccc(S(=O)(=O)Nc2ccc3c(c2)CCC(=O)N3)cc1Cl, the RP-LC retention time was 766 s. Compound CN1c2ccc(Cl)cc2C(=O)NC12CCN(C(=O)c1ccc(F)cc1)CC2 has an RP-LC retention time of 818 s. In the case of O=C([C@@H]1C[C@H](Oc2ccccc2)CN1C(=O)c1ccoc1)N1CCCC1, the RP-LC retention time was 733 s.
